This passage reports IC50 results from patent publication US20260355212A1 (priority 2022, published 2026).

The target in one assay is HCoV-HKU1 Mpro (Human coronavirus HKU1, UniProt P0C6X2). Put plainly: HCoV-HKU1 Mpro enzymatic inhibition assay (fluorescence). It counts as biochemical. The procedure:
(§1) The hCoV Mpro are cloned, expressed in E. coli and purified by WuXi AppTec Co., Ltd. The substrate are synthesized by Genscript Biotech.
(§2) Compounds are 3 fold serially diluted for 10 doses and added to an assay plate (384w format) using ECHO, in duplicate wells. The test concentration of test compounds is defined by sponsor. […] For no inhibition control (ZPE, zero percent effect), DMSO is added.
(§3) 25 μL of Mpro proteins are added to the assay plates containing compounds, respectively, using Multidrop. The compounds and Mpro proteins are pre-incubated at room temperature for 30 min. Then 5 µL of Mpro substrates are added to the related assay plates, respectively. Each activity testing point has a relevant background control to normalize the fluorescence interference of compound.
(§4) After 60 min incubation at 30° C., the fluorescence signal (RFU) is detected using a microplate reader M2e (SpectraMax) at Ex/Em=340 nm/490 nm.
(§5) The inhibition activity is calculated using the formula below, IC50 values will be calculated using the Inhibition % data.
(§6) Inhibition %=[(CPD−BGCPD)−(ZPE−BGZPE)/(HPE−BGHPE)−(ZPE−BGZPE)]×[…] • CPD: Signal of test compounds wells, containing compound+enzyme+substrate. • ZPE: Average of signals of zero percent effective control wells, containing enzyme+substrate, no compound. • HPE: Average of signals of hundred percent effect control wells, containing GC376+enzyme+substrate. • BG: Compound background control wells, containing compound+substrate, no enzyme
(§7) IC50 values of compounds are calculated with the GraphPad Prism software using the nonlinear regression model of log(inhibitor) vs. response—Variable slope (four parameters).

The target of the next assay is HCoV-NL63 Mpro (Human coronavirus NL63, UniProt P0C6X5). Put plainly: HCoV-NL63 Mpro enzymatic inhibition assay (fluorescence). Format: biochemical. The method, then:
as §1, §2, §3, §4, §5, §6, §7

The next assay concerns the target HCoV-OC43 Mpro (Human coronavirus OC43, UniProt P0C6X6). Nature of the assay: HCoV-OC43 Mpro enzymatic inhibition assay (fluorescence). It counts as biochemical. The method, then: as §1, §2, §3, §4, §5, §6, §7
Another assay concerns the target MERS Mpro (Middle East respiratory syndrome-related coronavirus, UniProt K9N7C7). Nature of the assay: biochemical. Details: species or system MERS-CoV.
A further assay addresses SARS-CoV-1 Mpro (Severe acute respiratory syndrome coronavirus, UniProt P0C6X7). Put plainly: biochemical.
For the next assay, the target named is HCoV-229E Mpro (Human coronavirus 229E, UniProt P0C6X1). Nature of the assay: HCoV-229E Mpro enzymatic inhibition assay (fluorescence). It counts as biochemical. The procedure:
as §1, §2, §3, §4, §5, §6, §7

For a further assay, the target named is SARS-CoV-2 Mpro (Severe acute respiratory syndrome coronavirus 2, UniProt P0DTD1). Put plainly: SARS-CoV-2 Mpro enzymatic inhibition assay (fluorescence). Format: biochemical. The method, then:
as §1
Compounds are 3 fold serially diluted for 10 doses and added to an assay plate (384w format) using ECHO, in duplicate wells. The test concentration of test compounds is defined by sponsor.
25 μL of Mpro proteins are added to the assay plates containing compounds, respectively, using Multidrop. The compounds and Mpro proteins are pre-incubated at room temperature for 30 min. Then 5 µL of Mpro substrates are added to the related assay plates, respectively.
as §4, §5, §7

Sequence of HCoV-NL63 Mpro (P0C6X5 2940-3242 limits assumed): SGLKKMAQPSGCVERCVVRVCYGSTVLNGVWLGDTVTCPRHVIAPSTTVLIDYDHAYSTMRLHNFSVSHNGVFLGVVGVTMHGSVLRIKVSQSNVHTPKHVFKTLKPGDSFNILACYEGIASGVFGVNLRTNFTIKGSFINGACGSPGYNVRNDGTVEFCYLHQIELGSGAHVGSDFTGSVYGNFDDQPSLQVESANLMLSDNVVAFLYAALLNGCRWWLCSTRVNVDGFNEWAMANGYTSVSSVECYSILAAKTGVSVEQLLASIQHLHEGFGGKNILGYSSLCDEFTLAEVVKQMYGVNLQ
Sequence of HCoV-229E Mpro (P0C6X1 2966-3267 limits assumed): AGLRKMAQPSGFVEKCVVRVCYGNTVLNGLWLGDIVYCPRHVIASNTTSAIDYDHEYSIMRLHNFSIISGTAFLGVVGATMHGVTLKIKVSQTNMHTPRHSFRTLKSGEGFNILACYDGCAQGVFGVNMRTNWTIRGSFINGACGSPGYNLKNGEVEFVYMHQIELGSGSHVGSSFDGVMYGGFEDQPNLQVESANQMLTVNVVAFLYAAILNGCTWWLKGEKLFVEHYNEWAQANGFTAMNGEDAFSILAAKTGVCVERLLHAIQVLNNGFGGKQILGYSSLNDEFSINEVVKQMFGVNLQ
Sequence of HCoV-OC43 Mpro (P0C6X6 3247-3549 limits assumed): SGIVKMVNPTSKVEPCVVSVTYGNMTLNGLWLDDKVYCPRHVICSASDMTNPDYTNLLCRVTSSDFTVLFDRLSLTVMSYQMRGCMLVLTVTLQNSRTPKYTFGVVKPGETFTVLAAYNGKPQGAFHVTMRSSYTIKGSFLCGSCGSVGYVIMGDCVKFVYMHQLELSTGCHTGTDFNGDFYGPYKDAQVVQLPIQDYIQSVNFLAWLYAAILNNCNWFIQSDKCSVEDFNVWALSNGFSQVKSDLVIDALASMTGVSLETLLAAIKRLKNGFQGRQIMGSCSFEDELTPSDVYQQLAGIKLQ
Sequence of HCoV-HKU1 Mpro (P0C6X2 3335-3637 limits assumed): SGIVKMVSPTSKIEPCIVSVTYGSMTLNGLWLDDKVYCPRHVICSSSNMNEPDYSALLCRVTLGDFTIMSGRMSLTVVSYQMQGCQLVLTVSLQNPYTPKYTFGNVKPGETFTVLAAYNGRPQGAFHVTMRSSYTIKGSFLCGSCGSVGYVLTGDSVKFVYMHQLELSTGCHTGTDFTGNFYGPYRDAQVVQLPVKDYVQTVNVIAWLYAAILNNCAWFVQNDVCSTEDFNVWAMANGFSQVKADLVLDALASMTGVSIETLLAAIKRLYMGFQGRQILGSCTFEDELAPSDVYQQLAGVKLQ
Sequence of MERS Mpro (K9N7C7 3248-3553 limits assumed): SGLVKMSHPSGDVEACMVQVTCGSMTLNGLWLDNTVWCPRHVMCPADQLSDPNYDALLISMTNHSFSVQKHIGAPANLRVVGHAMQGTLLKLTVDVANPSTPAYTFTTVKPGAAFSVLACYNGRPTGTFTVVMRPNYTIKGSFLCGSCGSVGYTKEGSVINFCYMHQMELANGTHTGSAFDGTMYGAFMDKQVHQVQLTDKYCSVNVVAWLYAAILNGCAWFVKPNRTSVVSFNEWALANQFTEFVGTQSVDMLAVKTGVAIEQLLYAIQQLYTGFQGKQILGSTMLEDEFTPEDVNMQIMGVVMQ

By IC50 is commonly meant the concentration needed to halve the response being measured. In the case of `CC1(C)[C@@H]2[C@@H](C(=O)N[C@H](C=O)C[C@@H]3CCNC3=O)N(C(=O)C3(c4cccc(Cl)c4)CC3)C[C@@H]21` [Compound 8, (1R,2S,5S)-3-(1-(3-chlorophenyl)cyclopropanecarbonyl)-6,6-dimethyl-N—((S)-1-oxo-3-((S)-2-oxopyrrolidin-3-yl)propan-2-yl)-3-azabicyclo[3.1.0]hexane-2-carboxamide], the IC50 on HCoV-HKU1 Mpro stood at 7.74 nM; against HCoV-NL63 Mpro it was 37.6 nM; against HCoV-OC43 Mpro, 18.9 nM; against MERS Mpro, 88.7 nM; on SARS-CoV-1 Mpro it was 11.9 nM; against HCoV-229E Mpro, 21.8 nM. This compound had an IC50 on SARS-CoV-2 Mpro of 11.3 nM.

On to `CC1(C)C[C@@H](C(=O)N[C@H](C=O)C[C@@H]2CCNC2=O)N(C(=O)c2cc3cccc(Cl)c3[nH]2)C1` [Compound 9, (S)-1-(7-chloro-1H-indole-2-carbonyl)-4,4-dimethyl-N—((S)-1-oxo-3—((S)-2-oxopyrrolidin-3-yl)propan-2-yl)pyrrolidine-2-carboxamide], for which the IC50 against HCoV-HKU1 Mpro was determined as 20.5 nM; at HCoV-NL63 Mpro, 52.3 nM; against HCoV-OC43 Mpro it was 65.1 nM; against MERS Mpro, 313 nM; on SARS-CoV-1 Mpro it was 37.8 nM; against HCoV-229E Mpro it was 30.9 nM. Besides, the IC50 at SARS-CoV-2 Mpro turned out to be 12.1 nM.

Regarding `O=C[C@H](C[C@@H]1CCNC1=O)NC(=O)[C@@H]1CC2(CCC2)CN1C(=O)c1cc2ccccc2[nH]1` [Compound 10, (S)-6-(1H-indole-2-carbonyl)-N—((S)-1-oxo-3-((S)-2-oxopyrrolidin-3-yl)propan-2-yl)-6-azaspiro[3.4]octane-7-carboxamide], the IC50 against HCoV-HKU1 Mpro stood at 17.7 nM; at HCoV-NL63 Mpro, 45 nM; on HCoV-OC43 Mpro it was 35.8 nM; against MERS Mpro it was 194 nM; against SARS-CoV-1 Mpro, 45.3 nM; on HCoV-229E Mpro, 32.3 nM. At SARS-CoV-2 Mpro, this compound yielded an IC50 of 12.3 nM.

Consider `CC1(C)[C@@H]2[C@@H](C(=O)N[C@H](C=O)C[C@@H]3CCCNC3=O)N(C(=O)c3cc4ccccc4[nH]3)C[C@@H]21` [Compound 11, (1R,2S,5S)-3-(1H-indole-2-carbonyl)-6,6-dimethyl-N—((S)-1-oxo-3-((S)-2-oxopiperidin-3-yl)propan-2-yl)-3-azabicyclo[3.1.0]hexane-2-carboxamide], for which the IC50 was 40 nM at HCoV-HKU1 Mpro; 50.6 nM against HCoV-NL63 Mpro; 34.1 nM against HCoV-OC43 Mpro; 230 nM at MERS Mpro; 38.4 nM against SARS-CoV-1 Mpro; 37.2 nM against HCoV-229E Mpro. Besides, the IC50 at SARS-CoV-2 Mpro turned out to be 13.2 nM.

On to `CC1(C)[C@@H]2[C@@H](C(=O)N[C@H](C=O)C[C@@H]3CCNC3=O)N(C(=O)c3cc4c(F)ccc(F)c4[nH]3)C[C@@H]21` [Compound 13, (1R,2S,5S)-3-(4,7-difluoro-1H-indole-2-carbonyl)-6,6-dimethyl-N—((S)-1-oxo-3-((S)-2-oxopyrrolidin-3-yl)propan-2-yl)-3-azabicyclo[3.1.0]hexane-2-carboxamide], for which the IC50 on HCoV-HKU1 Mpro is 38.2 nM; on HCoV-NL63 Mpro it was 76.3 nM; on HCoV-OC43 Mpro, 69 nM; on MERS Mpro, 372 nM; against SARS-CoV-1 Mpro it was 37.7 nM; on HCoV-229E Mpro it was 48.1 nM. This compound also gave an IC50 against SARS-CoV-2 Mpro of 14 nM.

Consider `CCc1cccc2[nH]c(C(=O)N3C[C@H]4[C@@H]([C@H]3C(=O)N[C@H](C=O)C[C@@H]3CCNC3=O)C4(C)C)cc12` [Compound 14, (1R,2S,5S)-3-(4-ethyl-1H-indole-2-carbonyl)-6,6-dimethyl-N—((S)-1-oxo-3-((S)-2-oxopyrrolidin-3-yl)propan-2-yl)-3-azabicyclo[3.1.0]hexane-2-carboxamide], for which the IC50 is 22.2 nM against HCoV-HKU1 Mpro; 49.3 nM on HCoV-NL63 Mpro; 39.4 nM against HCoV-OC43 Mpro; 322 nM at MERS Mpro; 52 nM against SARS-CoV-1 Mpro; 39.6 nM against HCoV-229E Mpro. Half-maximal inhibition against SARS-CoV-2 Mpro (IC50) required 14.5 nM.
